Reference: patent US5358946A, “Heterocycle-substituted amides, carbamates and ureas as agents for the treatment of atherosclerosis” (The Du Pont Merck Pharmaceutical Company, priority 1992, dated 1994)

What was measured:
[1] = molecular target: T1, acyl-CoA: cholesterol acyltransferase (ACAT) (Rattus norvegicus, UniProt Q7TQM4); test: Inhibition of Acyl-CoA: Cholesterol Acyltransferase (ACAT) in hepatic microsomes (in vitro hepatic ACAT activity); assay type: biochemical, rat (male Sprague Dawley); details: 14C-oleoyl-CoA, 15 min preincubation at 37° C., pH 7.4, read-out: Inhibition of Cholesterol Esterification (IC50)
T1 construct: Microsomes were obtained by differential centrifugation; from tissue; host or cells: liver microsomes of male Sprague Dawley rats
T1 sequence (Q7TQM4 1-524): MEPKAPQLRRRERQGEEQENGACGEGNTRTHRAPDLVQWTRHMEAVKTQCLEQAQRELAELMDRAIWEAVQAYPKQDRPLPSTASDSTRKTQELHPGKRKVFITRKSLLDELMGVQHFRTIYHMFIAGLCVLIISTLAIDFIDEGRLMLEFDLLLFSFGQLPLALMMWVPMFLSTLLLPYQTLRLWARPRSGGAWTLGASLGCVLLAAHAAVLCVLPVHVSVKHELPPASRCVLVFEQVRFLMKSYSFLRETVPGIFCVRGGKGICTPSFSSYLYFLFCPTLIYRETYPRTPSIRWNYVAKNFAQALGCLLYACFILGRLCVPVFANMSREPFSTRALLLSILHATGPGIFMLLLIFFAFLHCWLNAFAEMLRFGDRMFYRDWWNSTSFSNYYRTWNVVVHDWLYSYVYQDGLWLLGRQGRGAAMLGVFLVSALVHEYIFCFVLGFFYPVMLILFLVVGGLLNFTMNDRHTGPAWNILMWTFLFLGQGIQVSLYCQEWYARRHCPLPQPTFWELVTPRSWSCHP
Experimental: The ability of the compounds to inhibit ACAT, the enzyme responsible for the intracellular synthesis of cholesteryl esters, was tested as follows. Male Sprague Dawley rats weighing 150-300 g, were fed rat chow ad libitum. The animals were fasted for twenty-four hours prior to being sacrificed by decapitation. The livers were perfused in situ with 50 ml of cold 0.25M sucrose, excised, and homogenized in three volumes of 0.1M phosphate buffer, pH 7.4, that contained 0.5 mM EDTA (ethylenediaminetetraacetic acid), 1.0 mM glutathione, 0.25M sucrose and […]. Microsomes were obtained by differential centrifugation; the supernatant from an initial spin at 15,000×g for 15 minutes was centrifuged at 105,000×g for 1 hour to pellet the microsomes. The microsomes were suspended in homogenization buffer, reisolated by centrifugation, and stored at -70° C. Microsomes were used within one month of preparation.
The control assay in a final volume of 200 μl consisted of 200 μg of microsomal protein, 75μ<^14 C-oleoyl-CoA (10,000 dpm/nmol) in 0.1M phosphate, pH 7.4, that contained 1 mM glutathione. Compounds were added in 5 μl of DMSO (dimethyl sulfoxide) and additional controls were run with DMSO only. All components, except the oleoyl-CoA, were preincubated for 15 min. at 37° C. prior to the initiation of the reaction by the addition of oleoyl-CoA. The assay was terminated after 10 min. by the addition of 4 ml of chloroform:methanol (2:1, v/v). 20,000 dpm of 3H-choledsteryl oleate and 10 μg of unlabeled cholesteryl oleate and oleic acid were added as an internal standard and carriers, respectively. After allowing 10 min. for lipid extraction, 0.8 ml of deionized water was added to separte the solution into two phases. The lower chloroform phase was collected, dried under nitrogen and resuspended in 2 ml of hexane:diethyl ether (97:3 v/v). The lipids were then loaded onto BAKERSBOND spe* silica gel columns. Extracts were collected in scintillation vials and counted for radioactivity. The specific activity of ACAT in the control incubation averaged 260 pmol/min/mg microsomal protein.

[2] = molecular target: T2, ACAT (Mus musculus, UniProt Q61263); test: Inhibition of cholesterol esterification in the murine macrophage-like cell line J774.A1; assay type: cell-based; details: J774.A1 cells, ac-LDL loaded, 14C-oleic acid pulse
T2 construct: endogenous in cells; host or cells: J774.A1 (murine macrophage-like)
T2 sequence (Q61263 1-540): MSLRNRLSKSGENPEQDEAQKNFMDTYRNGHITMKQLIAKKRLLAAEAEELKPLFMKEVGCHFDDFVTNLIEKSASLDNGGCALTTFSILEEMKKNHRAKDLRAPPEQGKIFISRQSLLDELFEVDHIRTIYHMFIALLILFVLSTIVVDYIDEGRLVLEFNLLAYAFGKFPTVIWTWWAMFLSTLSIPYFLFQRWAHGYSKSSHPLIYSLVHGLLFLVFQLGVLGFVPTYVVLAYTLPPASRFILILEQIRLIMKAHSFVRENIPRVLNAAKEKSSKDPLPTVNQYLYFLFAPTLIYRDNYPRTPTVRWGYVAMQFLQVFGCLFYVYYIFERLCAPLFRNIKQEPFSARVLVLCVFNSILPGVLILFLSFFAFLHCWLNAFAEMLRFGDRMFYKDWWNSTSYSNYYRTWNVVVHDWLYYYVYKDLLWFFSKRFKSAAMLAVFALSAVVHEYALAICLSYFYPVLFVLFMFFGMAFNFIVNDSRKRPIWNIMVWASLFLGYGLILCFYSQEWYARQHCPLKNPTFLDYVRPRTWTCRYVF
Experimental: The esterification of cholesterol was determined in the murine macrophage-like cell line J774.A1. Cells were seeded in 35 mm wells at a density of 300,000 cells per well in 2 mls of Dulbecco's Eagle Medium (DMEM) supplemented with 10% fetal bovine serum (FBS). Cells were incubated at 37° C. in an atmosphere of 5% CO2 and 93% humidity. After […] the media was changed to 0.68 mls 10% FBS-DMEM containing 34 μg of acetylated human low density lipoprotein (ac-LDL) to increase the intracellular concentration of cholesterol and promote esterification. At 41 hours, various inhibitors were added to the cells in DMSO (10 μl/ml maximum). At 43 hours, the cells were pulsed with 0.1 mM ^14 C-oleic acid (10,000 dpm/nmol) complexed with BSA (bovine serum albumin) to follow cholesterol ester formation. The experiment was terminated at 45 hours by washing the monolayers 3 times with 3 ml of Tris-buffered saline at 4° C. The lipids were extracted by incubating the monolayers with 1.5 ml of hexane: isopropanol (3:2, v/v) for 30 min. under gentle agitation. During this period, 10,000 dpm ^3 H-cholesterol oleate and 10 μg of unlabeled cholesteryl oleate, oleic acid, triolein and cholesterol were added as an […] standard and carriers. The organic solvent was removed and the cells were washed with an additional 1.0 ml of hexane: isopropanol which was combined with the original extract. The cells were allowed to dry overnight, digested with 2.0 ml of 0.2N sodium hydroxide for 1 hour and an aliquot of the solubilized protein used for protein determination using the Lowry method. […] Extracts were collected in scintillation vials to determine the amount of radioactivity. The conversion of oleic acid to cholesteryl ester in the control averaged 0.54 mmol/hour/mg protein and was increased upon the addition of ac-LDL to about 10.689±0.69 mmol/hour/mg protein.

| Compound | IC50 [1] [µM] | IC50 [2] [µM] |
| --- | --- | --- |
| CCCCCCCN(CCOC(=O)CSc1nc(-c2ccc(OC)cc2)c(-c2ccc(OC)cc2)[nH]1)C(=O)Nc1ccc(F)cc1F [Example 422, N-[2-[2-(4,5-bis(4-methoxyphenyl)-1H-imidazol-2-ylthio)-acetoxy]-ethyl]-N'-(2,4-diflurophenyl)-N -heptyl-urea] | 2.6 | 2.39 |
| CCCCCCCN(CCNC(=O)CSc1nc(-c2ccc(OC)cc2)c(-c2ccc(OC)cc2)[nH]1)C(=O)Nc1ccc(F)cc1F [Example 432] | 3.75 | 0.8 |
